# Measurements as given in publication PMC4600463 (European journal of medicinal chemistry, 2015).
# Entries after “also recorded” stand apart in the source; their conditions may differ.
# Target: Keap1 (Kelch domain) (Homo sapiens, UniProt Q14145)
# Details: SAR discussion
# Sequence of Keap1 (Kelch domain) (Q14145 321-609): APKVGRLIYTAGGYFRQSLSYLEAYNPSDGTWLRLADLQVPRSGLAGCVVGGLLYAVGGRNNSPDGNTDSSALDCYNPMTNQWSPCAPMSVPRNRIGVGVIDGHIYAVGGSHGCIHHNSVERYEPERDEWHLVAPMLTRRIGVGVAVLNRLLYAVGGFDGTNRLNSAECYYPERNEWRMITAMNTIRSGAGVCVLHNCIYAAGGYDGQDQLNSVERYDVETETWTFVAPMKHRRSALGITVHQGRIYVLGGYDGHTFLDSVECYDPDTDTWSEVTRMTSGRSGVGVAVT
row,Activity in fluorescence anisotropy assay (in words),Compound
1,loss of activity,"COc1ccc(S(=O)(=O)Nc2cc(NS(=O)(=O)c3ccc(OC)cc3)c3ccccc3c2)cc1 [Compound 19, N,N′-(naphthalene-1,3-diyl)bis(4-methoxybenzenesulfonamide)]"
2,inactive,"O=S(=O)(Nc1ccc(NS(=O)(=O)c2ccccc2)c2ccccc12)c1ccccc1 [Compound 11a, N,N′-(naphthalene-1,4-diyl)dibenzenesulfonamide]"
3,inactive,"O=S(=O)(Nc1ccc(NS(=O)(=O)c2cccc(C(F)(F)F)c2)c2ccccc12)c1cccc(C(F)(F)F)c1 [Compound 11f, N,N′-(naphthalene-1,4-diyl)bis(3-trifluoromethylbenzenesulfonamide)]"
4,inactive,"COc1ccc(S(=O)(=O)Nc2cccc3ccccc23)cc1 [Compound 17, 4-methoxy-N-(naphthalen-1-yl)benzenesulfonamide]"
5,loss of activity,"COc1ccc(S(=O)(=O)Nc2cc3ccccc3cc2NS(=O)(=O)c2ccc(OC)cc2)cc1 [Compound 20, N,N′-(naphthalene-2,3-diyl)bis(4-methoxybenzenesulfonamide)]"
6,inactive,"O=C(O)c1cccc(S(=O)(=O)Nc2ccc(NS(=O)(=O)c3cccc(C(=O)O)c3)c3ccccc23)c1 [Compound 11d, 3,3′-(((4-(hydrosulfonylamino)naphthalen-1-yl)amino)sulfonyl)dibenzoic acid]"
7,inactive,"COc1ccc(S(=O)(=O)N(CC(=O)O)c2cccc3ccccc23)cc1 [Compound 18, N-((4-methoxyphenyl)sulfonyl)-N-(naphthalen-1-yl)glycine]"
8,loss of activity,"COc1ccc(S(=O)(=O)N(CC(=O)O)c2cc(N(CC(=O)O)S(=O)(=O)c3ccc(OC)cc3)c3ccccc3c2)cc1 [Compound 22, 2,2′-(naphthalene-1,3-diylbis(((4-methoxyphenyl)sulfonyl)azanediyl))acetic acid]"

row,Compound,Activity in fluorescence anisotropy assay (in words)
1,"COc1ccc(S(=O)(=O)N(CC(N)=O)c2cc(N(CC(N)=O)S(=O)(=O)c3ccc(OC)cc3)c3ccccc3c2)cc1 [Compound 21, 2,2′-(naphthalene-1,3-diylbis(((4-methoxyphenyl)sulfonyl)azanediyl))diacetamide]",loss of activity; also recorded: inactive
2,"COc1ccc(S(=O)(=O)Nc2cc3ccccc3cc2N(CC(N)=O)S(=O)(=O)c2ccc(OC)cc2)cc1 [Compound 23, 2-(naphthalene-2,3-diylbis(((4-methoxyphenyl)sulfonyl)azanediyl))acetamide]",loss of activity; also recorded: inactive
